Experimental data: ChEMBL document CHEMBL1795320, “Synthesis and antibacterial activity of novel 4″-O-benzimidazolyl clarithromycin derivatives” (2011)
≈ marks a conversion by molar mass, not a printed value.

What was measured:
Type in all cases: functional
[1] = test system: Streptococcus pneumoniae; experiment: Ratio of erythromycin MIC to compound MIC for erythromycin-resistant Streptococcus pneumoniae B1 expressing erm gene
[2] = test system: Streptococcus pneumoniae; experiment: Antibacterial activity against erythromycin-susceptible Streptococcus pneumoniae ATCC 49619 by broth microdilution method
[3] = test system: Streptococcus pneumoniae; experiment: Ratio of clarithromycin MIC to compound MIC for erythromycin-resistant Streptococcus pneumoniae B1 expressing erm gene
[4] = test system: Streptococcus pneumoniae; experiment: Ratio of erythromycin MIC to compound MIC for erythromycin-resistant Streptococcus pneumoniae A22072 expressing mef gene
[5] = test system: Streptococcus pneumoniae; experiment: Ratio of azithromycin MIC to compound MIC for erythromycin-resistant Streptococcus pneumoniae B1 expressing erm gene
[6] = test system: Streptococcus pneumoniae; experiment: Antibacterial activity against erythromycin-resistant Streptococcus pneumoniae B1 expressing erm gene by broth microdilution method
[7] = test system: Streptococcus pneumoniae; experiment: Antibacterial activity against erythromycin-resistant Streptococcus pneumoniae AB11 expressing erm and mef gene by broth microdilution method
[8] = test system: Staphylococcus aureus; experiment: Ratio of clarithromycin MIC to compound MIC for erythromycin-susceptible Staphylococcus aureus ATCC 25923
[9] = test system: Streptococcus pneumoniae; experiment: Ratio of clarithromycin MIC to compound MIC for erythromycin-resistant Streptococcus pneumoniae A22072 expressing mef gene
[10] = test system: Streptococcus pneumoniae; experiment: Ratio of clarithromycin MIC to compound MIC for erythromycin-susceptible Streptococcus pneumoniae ATCC 49619
[11] = test system: Staphylococcus aureus; experiment: Antibacterial activity against erythromycin-susceptible Staphylococcus aureus ATCC 25923 by broth microdilution method
[12] = test system: Streptococcus pneumoniae; experiment: Antibacterial activity against erythromycin-resistant Streptococcus pneumoniae A22072 expressing mef gene by broth microdilution method

`CC[C@H]1OC(=O)[C@H](C)[C@@H](O[C@H]2C[C@@](C)(OC)[C@@H](OC(=O)NNC(=O)c3ccc4[nH]c(-c5ccccc5OC)nc4c3)[C@H](C)O2)[C@H](C)[C@@H](O[C@@H]2O[C@H](C)C[C@H](N(C)C)[C@H]2O)[C@](C)(OC)C[C@@H](C)C(=O)[C@H](C)[C@@H](O)[C@]1(C)O` gave a Ratio [1] of 64, an MIC [2] of 0.03 µg/mL (≈ 0.0284 µM) and a Ratio [3] of 64. It also gave a Ratio [4] of 267, a Ratio [5] of 64 and an MIC [6] of 2 µg/mL (≈ 1.89 µM). For the same compound, the MIC [7] was 16 µg/mL (≈ 15.1 µM), the Ratio [8] was 4 and the Ratio [9] was 133. The Ratio [10] was 4, the MIC [11] was 0.03 µg/mL (≈ 0.0284 µM) and the MIC [12] was 0.03 µg/mL (≈ 0.0284 µM).
